In patent publication US12036301B2, “Deodorant and antiperspirant compositions” (The Procter & Gamble Company, priority 2017, dated 2024):
Structures can show the parent of a compound that is named as a salt.

Tests used:
S. epidermidis = test: Tier 1 Anaerobic MIC Assay; format: cell-based, Staphylococcus epidermidis (clinical isolate); details: raw material, BHI with 1% Tween 80, 37° C. overnight
Source text: (§1) 1. Tier 1 Anaerobic MIC Assay
(§2) The data in Table 1 above was generated with the following test method. The purpose of this assay is to determine if a compound or formulation has an antimicrobial effect in vitro.
(§3) It is understood that when not specifically noted in this procedure: • a) All materials, reagents and equipment required for this procedure are of appropriate design and condition of cleanliness and/or sterility as determined by their intended use. • b) The operator has been trained in aseptic technique and has been qualified to perform the procedure and accurately interpret the results. • c) All media required for this procedure was manufactured by a reputable commercial source eg. Difco, Merck etc. and has been stored and prepared as per manufacturer's instructions. • d) All routine laboratory controls, including but not limited to, media function and growth promotion tests, verification of sterility and use of positive and negative controls are being conducted. Procedure: (all Procedures Performed in Anaerobic Chamber Except where Noted) 1. Apparatus • Incubator at 37° C.; 20-200 ul 12 channel pipette; 5-50 ul 12 channel pipette; 1250 ul 8 channel Thermo Scientific Matrix pipette; 96 well plate shaker (located in incubator); Beckman Coulter deep well cap mat #267005; Beckman Coulter deep 96 well plates #267007; Falcon 96 well tissue culture plates #353072; Vortexer; Culture tubes/caps Disposable sterile gloves; Sterile petri dishes; Standard microbiological lab equipment (sterile pipettes, syringes, tips, loops, etc.); Glass bottles/flasks for media; Autoclave; Parafilm; Spectrophotometer. 2. Media • 0.9% or 0.85% saline solution • BHI agar supplemented with 1% Tween 80 • BHI media supplemented with 1% Tween 80 3. Microbial Strains • Staphylococcus epidermidis (clinical isolate) • Corynebacterium mucofaciens (clinical isolate) 4. Test Procedure Inoculum Preparation • Prior to testing streak organisms for isolation on BHI with 1% Tween 80 plates, wrap with parafilm and place in 37° C. incubator. When isolated colonies appear remove one representative colony from each plate and place each in 5 ml of BHI with 1% Tween 80 media. Incubate at 37° C. with shaking overnight. Inoculate 20 ml BHI with 1% Tween 80 (per 96 deep well plate to be tested) with 20 ul of the overnight culture (1-1000 dilution). Master Plate Preparation • Compounds/formulations to be tested are diluted across a 96 deep well plate as shown below (for a 1% stock solution). 800 ul of 0.85% saline is added to wells A1 and B1 (as these will be the negative and positive control respectively). 800 ul each 1% stock solution+positive control are added to wells C1 through H1. 400 ul 0.85% saline are added to all other wells. 400 ul is then removed from #1 well added to the #2 well and mixed. This is then continued across the plate resulting in a 50% dilution between wells across the plate (this can be easily accomplished with an automatic 8 channel Matrix pipette set to withdraw, dispense and mix).
(§4) In row A of a 96 deep well plate pipette 180 ul of sterile BHI with 1% Tween 80 as a negative growth control. All other wells receive 180 ul of inoculum. From the master plate introduce 20 ul to the corresponding row in the test plate using an 8-channel pipette. Loaded plates are placed on a plate shaker in the 37° C. incubator and incubated overnight. The next day read the O.D. 600 on a plate reader. The MIC is the last well from the right that has no bacterial growth.

C. mucofaciens = test: Tier 1 Anaerobic MIC Assay; format: cell-based, Corynebacterium mucofaciens (clinical isolate); details: raw material, BHI with 1% Tween 80, 37° C. overnight
Source text: as §1, §2, §3, §4

[1] = tested on: two key underarm bacteria strains; test: Raw material microbial inhibition, verbal summary for both strains; format: cell-based, C. mucofaciens and S. epidermidis; details: verbal summary of Table 2, both strains
Source text: The data in Table 1 above was generated with the following test method.
It is understood that when not specifically noted in this procedure: • a) All materials, reagents and equipment required for this procedure are of appropriate design and condition of cleanliness and/or sterility as determined by their intended use. • b) The operator has been trained in aseptic technique and has been qualified to perform the procedure and accurately interpret the results. • c) All media required for this procedure was manufactured by a reputable commercial source eg. […] Procedure: (all Procedures Performed in Anaerobic Chamber Except where Noted) 1. […] 2. […] Microbial Strains • Staphylococcus epidermidis (clinical isolate) • Corynebacterium mucofaciens (clinical isolate) 4. Test Procedure Inoculum Preparation • Prior to testing streak organisms for isolation on BHI with 1% Tween 80 plates, wrap with parafilm and place in 37° C. incubator. When isolated colonies appear remove one representative colony from each plate and place each in 5 ml of BHI with 1% Tween 80 media. Incubate at 37° C. with shaking overnight. Inoculate 20 ml BHI with 1% Tween 80 (per 96 deep well plate to be tested) with 20 ul of the overnight culture (1-1000 dilution). Master Plate Preparation • Compounds/formulations to be tested are diluted across a 96 deep well plate as shown below (for a 1% stock solution). […] 800 ul each 1% stock solution+positive control are added to wells C1 through H1. […] 400 ul is then removed from #1 well added to the #2 well and mixed. This is then continued across the plate resulting in a 50% dilution between wells across the plate (this can be easily accomplished with an automatic 8 channel Matrix pipette set to withdraw, dispense and mix).
as §4

[2] = iron binding affinity; NIST Standard Reference Database 46; cited from earlier work
[3] = intrinsic water solubility independent of pH

Row | Structure (SMILES) | microbial inhibition concentration (MIC), S. epidermidis (S. epidermidis) [ppm] | microbial inhibition concentration (MIC), C. mucofaciens (C. mucofaciens) [ppm] | performance against the bacteria as raw materials [1] | Log K1 [2] | further results
1 | O=C([O-])[O-].[Ca+2] [Ca Carbonate, calcium carbonate] | >2500 | >2500 | performing moderately well | – | –
2 | [Ca+2].[Cl-].[Cl-] [CaCl] | >50000 | >50000 | – | – | –
3 | CC(C)=CCCC(C)=CC=O [Citral] | – | – | performing well | – | –
4 | O=C(O)CC(O)(CC(=O)O)C(=O)O [Citric Acid] | – | – | – | 11 | –
5 | CC(=O)N(O)CCCCCNC(=O)CCC(=O)N(O)CCCCCNC(=O)CCC(=O)N(O)CCCCCN [Desferrioxamine] | – | – | – | 31 | –
6 | O=C(O)CN(CCN(CC(=O)O)CC(=O)O)CCN(CC(=O)O)CC(=O)O [Diethylenetriaminepentaacetic acid] | – | – | – | 28 | –
7 | O=P(O)(O)CN(CCN(CP(=O)(O)O)CP(=O)(O)O)CCN(CP(=O)(O)O)CP(=O)(O)O [Diethylenetriaminepentakis(methylenephosphonic acid)] | – | – | – | 23 | –
8 | COC(=O)CCC(=O)OC [Dimethyl Succinate] | – | – | performing well | – | –
9 | CCCCC(CC)COCC(O)CO (stereo not shown) [Ethylhexyl glycerin] | 12500 | 12500 | – | – | –
10 | C=CCc1ccc(O)c(OC)c1 [Eugenol] | – | – | performing well | – | –
11 | CCCCCCCCC(CO)CCCCCC (stereo not shown) [Hexyl Decanol] | 3031 | 6062 | – | – | –
12 | CC(C(=O)O)N(CC(=O)O)CC(=O)O (stereo not shown) [Methylglycine diacetic acid (MGDA), Methylglycine diacetic acid] | – | – | – | 16 | –
13 | [Cl-].[Na+] [NaCl] | >25000 | >25000 | – | – | –
14 | Cc1cc(CC(C)CC(C)(C)C)n(O)c(=O)c1.NCCO (stereo not shown) [Piroctone olamine, 1-Hydroxy-4-methyl-6-(2,4,4-trimethylpentyl)-2-pyridone monoethanolamine salt] | – | – | perform particularly well | – | LogWSo [3]: −3.22
15 | C=CCCCCCCCCC(=O)N[C@@H](Cc1ccccc1)C(=O)O [Sepiwhite] | 1000 | 2000 | performing well | – | –
16 | CCOC(=O)CC(O)(CC(=O)OCC)C(=O)OCC [Triethyl citrate] | – | – | performing well | – | –
